Converted amounts (≈) assume the structure as drawn.
Assays:
Type in all cases: functional
Trichoderma = experiment: Antifungal activity against Trichoderma sp after 72 to 96 hr by serial dilution method
Aspergillus niger = experiment: Antifungal activity against Aspergillus niger after 72 to 96 hr by serial dilution method
Klebsiella pneumoniae = experiment: Antibacterial activity against Klebsiella pneumoniae after 24 hr by serial dilution method
Escherichia coli = experiment: Antibacterial activity against Escherichia coli after 24 hr by serial dilution method
Bacillus subtilis = experiment: Antibacterial activity against Bacillus subtilis after 24 hr by serial dilution method

| MIC (Trichoderma) [µg/mL] | MIC (Aspergillus niger) [µg/mL] | MIC (Klebsiella pneumoniae) [µg/mL] | MIC (Escherichia coli) [µg/mL] | MIC (Bacillus subtilis) [µg/mL] | Compound |
| --- | --- | --- | --- | --- | --- |
| 8 (≈ 37.9 µM) | 8 (≈ 37.9 µM) | 64 (≈ 303 µM) | 64 (≈ 303 µM) | 8 (≈ 37.9 µM) | CC(C)(C)C1CC(=O)CC(C(C)(C)C)N1 (stereo not given) |
| 16 (≈ 71 µM) | 8 (≈ 35.5 µM) | > 512 | 256 (≈ 1140 µM) | 16 (≈ 71 µM) | CC1C(=O)CC(C(C)(C)C)NC1C(C)(C)C (stereo not given) |
| 32 (≈ 113 µM) | 8 (≈ 28.2 µM) | 128 (≈ 452 µM) | 64 (≈ 226 µM) | 8 (≈ 28.2 µM) | CCOC(=O)C1C(=O)CC(C(C)(C)C)NC1C(C)(C)C (stereo not given) |
| 16 (≈ 70.7 µM) | 64 (≈ 283 µM) | > 512 | 256 (≈ 1130 µM) | 64 (≈ 283 µM) | CC(C)(C)C1CC(=NO)CC(C(C)(C)C)N1 (stereo not given) |
| 8 (≈ 33.3 µM) | 8 (≈ 33.3 µM) | 32 (≈ 133 µM) | > 512 | 16 (≈ 66.6 µM) | CC1/C(=N/O)CC(C(C)(C)C)NC1C(C)(C)C (stereo not given) |
| 8 (≈ 26.8 µM) | 8 (≈ 26.8 µM) | 64 (≈ 214 µM) | 16 (≈ 53.6 µM) | 64 (≈ 214 µM) | CCOC(=O)C1/C(=N\O)CC(C(C)(C)C)NC1C(C)(C)C (stereo not given) |
| 16 (≈ 59.8 µM) | 8 (≈ 29.9 µM) | 128 (≈ 479 µM) | 64 (≈ 239 µM) | 8 (≈ 29.9 µM) | CC(C)(C)C1CC(=O)CC(C(C)(C)C)N1C(C)(C)C (stereo not given) |
| 16 (≈ 56.8 µM) | 8 (≈ 28.4 µM) | 64 (≈ 227 µM) | > 512 | 16 (≈ 56.8 µM) | CC1C(=O)CC(C(C)(C)C)N(C(C)(C)C)C1C(C)(C)C (stereo not given) |
| > 512 | > 512 | 256 (≈ 754 µM) | 64 (≈ 189 µM) | 16 (≈ 47.1 µM) | CCOC(=O)C1C(=O)CC(C(C)(C)C)N(C(C)(C)C)C1C(C)(C)C (stereo not given) |
| > 512 | > 512 | 256 (≈ 1070 µM) | > 512 | 16 (≈ 66.6 µM) | CC(C)(C)C1CC(=O)CC(C(C)(C)C)N1N=O (stereo not given) |
| 8 (≈ 31.4 µM) | 16 (≈ 62.9 µM) | 512 (≈ 2010 µM) | > 512 | 16 (≈ 62.9 µM) | CC1C(=O)CC(C(C)(C)C)N(N=O)C1C(C)(C)C (stereo not given) |
| 32 (≈ 102 µM) | 64 (≈ 205 µM) | 32 (≈ 102 µM) | 64 (≈ 205 µM) | 64 (≈ 205 µM) | CCOC(=O)C1C(=O)CC(C(C)(C)C)N(N=O)C1C(C)(C)C (stereo not given) |
| 32 (≈ 34.6 µM) | 32 (≈ 34.6 µM) | – | – | – | C[C@@H]1[C@H](O)[C@@H](C)/C=C/C=C/C=C/C=C/C=C/C=C/C=C/[C@H](O[C@@H]2O[C@H](C)[C@@H](O)[C@H](N)[C@@H]2O)C[C@@H]2O[C@](O)(C[C@@H](O)C[C@@H](O)[C@H](O)CC[C@@H](O)C[C@@H](O)CC(=O)O[C@H]1C)C[C@H](O)[C@H]2C(=O)O [AMPHOTERICIN B] |

| Compound | MIC (Trichoderma) [µg/mL] | MIC (Aspergillus niger) [µg/mL] | MIC (Klebsiella pneumoniae) [µg/mL] | MIC (Escherichia coli) [µg/mL] | MIC (Bacillus subtilis) [µg/mL] |
| --- | --- | --- | --- | --- | --- |
| CCn1cc(C(=O)O)c(=O)c2cc(F)c(N3CCNCC3)cc21 [NORFLOXACIN] | – | – | 16 (≈ 50.1 µM) | 32 (≈ 100 µM) | 16 (≈ 50.1 µM) |

Source: ChEMBL document CHEMBL3046348, “Synthesis and antimicrobial screening of novel 2,6-ditertiarybutylpiperidin-4-ones” (2012)
